The record followed here is patent US20260008760A1, “DIPEPTIDYL PEPTIDASE 1 INHIBITORS AND USES THEREOF” (Insmed Incorporated, priority 2024, published 2026).

Where only a bound is given, the exact number is not on record here.

One assay addresses DPP1 in HL-60 cells (Homo sapiens, UniProt P53634). Kind of assay: DPP1 Cell Single-Point Percent Inhibition Testing. Also noted: host or cells: HL-60 cells. Conditions: final compound concentration 5 nM, n = 1. The format is cell-based. The protocol: Example 100. DPP1 Cell Single-Point Percent Inhibition Testing
HL-60 cells (ATCC; Manassas, VA) were maintained in RPMI-1640 supplemented with 20% heat-inactivated FBS and 1× Antibiotic Antimycotic (Cytiva; Marlborough, MA). Media was changed every three to four days and cells were not allowed to exceed 1×10^6 cells per mL. Prior to assay, cells were collected by centrifugation at 500 rcf for 3 minutes, resuspended in RPMI (with no additional supplements) and counted. Cells were diluted in RPMI to a concentration of 5×10^5 live cells per mL and transferred to black 96-well plates for assay, 60 μL per well. Test articles were diluted to 25 nM in RPMI plus 0.5% DMSO, and 20 μL was added to each assay well. Compound was allowed to pre-incubate with cells with gentle shaking at 100 rpm for 60 minutes at 37° C. in a cell culture incubator maintained at 5% CO2, after which 20 μL of 500 μM H-Gly-Phe-AFC cell-permeable substrate (MP Biomedicals; Solon, OH) in RPMI was added to each well, giving final compound concentration of 5 nM, a final substrate concentration of 100 μM and a final DMSO concentration of 0.1%. Plates were returned to the incubator with shaking at 100 rpm for 30 minutes, after which fluorescence was measured at Excitation/Emission 400/505 nm. Percent Inhibition was calculated from RFU values by first subtracting background values (wells in which RPMI was substituted for cells) from each well, and then subtracting background-subtracted RFU derived from wells that received a final concentration of 10 μM brensocatib. This value represents the non-specific substrate cleavage from the HL-60 cells, and the remaining RFU should theoretically be solely the contribution of DPP1 enzyme activity. The final percent inhibition value was calculated for each test article based on remaining RFU compared to RFU from wells that received only vehicle control.

The target of another assay is human DPP1 enzyme (Homo sapiens, UniProt P53634). Kind of assay: Human DPP1 Enzyme Single-Point Percent Inhibition Testing (HL-60 lysate). Also noted: A crude lysate of HL-60 cells (ATCC; Manassas, VA) was used as a source of human DPP1 enzyme; host or cells: HL-60 cells (crude lysate). To be noted: final compound concentration of 10 nM, 400 μM H-Gly-Arg-AMC, n = 1. The format is biochemical. The protocol: Example 98. Human DPP1 Enzyme Single-Point Percent Inhibition Testing
A crude lysate of HL-60 cells (ATCC; Manassas, VA) was used as a source of human DPP1 enzyme in the assay. Lysate was prepared in 1% Triton X-100 in PBS at a concentration of 20,000 live cells per μL of lysis buffer and was centrifuged at 16,000 rcf for 10 minutes at 4° C., after which supernatant was collected and flash-frozen in liquid nitrogen. Test articles were applied to human DPP1 enzyme in Assay Buffer (25 mM MES pH 6.0, 50 mM NaCl, 5 mM DTT) in a total reaction volume of 125 μL. 25 μL of compound diluted to 50 nM in Assay Buffer plus 5% DMSO was first added to 50 μL of HL-60 lysate diluted to contain a DPP1 enzyme concentration of roughly 1 ng/μL and allowed to pre-incubate for 10 minutes at 37° C. after which 50 μL of 1000 μM H-Gly-Arg-AMC substrate (Bachem; St. Torrance, CA) was added, giving final compound concentration of 10 nM, a final substrate concentration of 400 μM and a final DMSO concentration of 1%. Substrate cleavage was measured for 90 minutes at 37° C., with fluorescence at Excitation/Emission 350/450 nm measured every 5 minutes. DPP1 concentration was interpolated based on its activity relative to a standard curve of activated human recombinant DPP1 enzyme. Percent inhibition at 10 nM was calculated for each test article based on remaining DPP1 activity compared to enzyme activity in wells that received only vehicle control.

DPP1 in HL-60 cells, sequence (P53634 25-463): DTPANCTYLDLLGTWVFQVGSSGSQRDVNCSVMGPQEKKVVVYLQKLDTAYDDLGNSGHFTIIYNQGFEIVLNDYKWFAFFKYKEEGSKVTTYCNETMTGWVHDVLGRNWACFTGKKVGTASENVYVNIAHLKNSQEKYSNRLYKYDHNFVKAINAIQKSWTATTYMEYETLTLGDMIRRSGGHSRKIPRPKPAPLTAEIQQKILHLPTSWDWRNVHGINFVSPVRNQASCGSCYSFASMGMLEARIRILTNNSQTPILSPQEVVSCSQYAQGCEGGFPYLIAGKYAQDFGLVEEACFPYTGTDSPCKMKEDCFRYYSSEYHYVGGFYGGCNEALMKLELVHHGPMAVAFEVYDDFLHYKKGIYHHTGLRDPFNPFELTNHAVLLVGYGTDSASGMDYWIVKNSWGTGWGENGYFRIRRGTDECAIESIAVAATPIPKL
human DPP1 enzyme, sequence (P53634 25-463): as above

As to `CO[C@@H]1CCNC[C@@H](C(=O)NC(C#N)Cc2cc3c(cc2F)-c2cc(C#N)ccc2CO3)OC1` (some centres unmarked) [Compound B21], the inhibition at 0.005 µM at DPP1 in HL-60 cells is 76.5 to 93.9%. The same compound showed an inhibition at 0.01 µM against human DPP1 enzyme of at least 66.7%.
`CO[C@@H]1CCNC[C@@H](C(=O)N[C@H](C#N)Cc2ccc(-c3cnc4c(n3)CCCC4)cc2F)OC1` [Compound A85] yielded an inhibition at 0.005 µM against DPP1 in HL-60 cells of at most 76.5%. This compound came in with an inhibition at 0.01 µM on human DPP1 enzyme of at least 66.7%.
As to `CO[C@@H]1CCNC[C@@H](C(=O)N[C@H](C#N)Cc2ccc(-c3ccc4c(n3)CCCN4)cc2)OC1` [Compound A81], at DPP1 in HL-60 cells, the inhibition at 0.005 µM is at most 76.5%. Besides, the inhibition at 0.01 µM against human DPP1 enzyme was in the range of 40 to 66.7%.
For `C[C@@H]1NC[C@@H](C(=O)N[C@H](C#N)Cc2ccc(-c3ccc4c(n3)CCCN4)cc2F)OC[C@H]1O` [Compound A101] the same measures were 76.5 to 93.9% and at least 66.7%.
Consider `N#C[C@H](Cc1ccc(-c2cnc3c(n2)CCCC3)cc1)NC(=O)[C@@H]1CNCCCCO1` [Compound A114], for which the inhibition at 0.005 µM against DPP1 in HL-60 cells was at most 76.5%. The inhibition at 0.01 µM against human DPP1 enzyme is at most 40%.
On DPP1 in HL-60 cells, `CN1CCN(Cc2ccc(-c3ccc(C[C@@H](C#N)NC(=O)[C@@H]4CNCCCCO4)c(F)c3)cc2)CC1` [Compound 45] showed an inhibition at 0.005 µM of at most 76.5%. The inhibition at 0.01 µM against human DPP1 enzyme is at most 40%.
For `CN1CCCC2(C1)C(=O)N(C)c1ccc(-c3ccc(C[C@@H](C#N)NC(=O)[C@@H]4CNCCCCO4)c(F)c3)cc12` (some centres unmarked) [Compound 41] the same measures were at most 76.5% and 40 to 66.7%.
The corresponding values for `N#C[C@H](Cc1ccc(-c2ccc3c(n2)CCCN3)cc1)NC(=O)[C@@H]1CNCCCCO1` [Compound A111] are at most 76.5% and at most 40%.
Turning to `CO[C@@H]1CCNC[C@@H](C(=O)N[C@H](C#N)Cc2ccc(-c3cc4c(C)nc(C)cn4c3)cc2)OC1` [Compound A80], the inhibition at 0.005 µM at DPP1 in HL-60 cells lay within 76.5 to 93.9%. The compound also returned an inhibition at 0.01 µM against human DPP1 enzyme of at least 66.7%.
The corresponding values for `CO[C@H]1CCO[C@H](C(=O)N[C@H](C#N)Cc2ccc(-c3cc4c(C)ncc(C)n4c3)cc2)CNC1` [Compound A128] are 76.5 to 93.9% and 40 to 66.7%.
Compound `CO[C@@H]1CCNC[C@@H](C(=O)N[C@H](C#N)Cc2ccc(-c3ccc4nnn(C)c4c3)cc2)OC1` [Compound H6] gave an inhibition at 0.005 µM at DPP1 in HL-60 cells of at most 76.5%. The same compound displayed an inhibition at 0.01 µM at human DPP1 enzyme of at least 66.7%.
At DPP1 in HL-60 cells, `Cn1nnc2ccc(-c3ccc(C[C@@H](C#N)NC(=O)[C@@H]4CNCCCCO4)cc3)cc21` [Compound H36] yielded an inhibition at 0.005 µM of at most 76.5%. Besides, at human DPP1 enzyme, the inhibition at 0.01 µM was at most 40%.
Compound `COC1CNC[C@@H](C(=O)N[C@H](C#N)Cc2ccc(-c3cc4c(C)ncc(C)n4c3)cc2)OC1` (some centres unmarked) [Compound A125] displayed an inhibition at 0.005 µM against DPP1 in HL-60 cells of at least 93.9%. On human DPP1 enzyme, this compound came in with an inhibition at 0.01 µM of at least 66.7%.
The corresponding values for `Cc1cn2cc(-c3ccc(C[C@@H](C#N)NC(=O)[C@@H]4CN[C@@H](C)[C@@H](O)CO4)c(F)c3)cc2c(C)n1` [Compound A106] are at most 76.5% and at most 40%.
The corresponding values for `COC1CNC[C@@H](C(=O)N[C@H](C#N)Cc2ccc(-c3ccc4cnn(C5CCN(C)CC5)c4c3)cc2F)OC1` (some centres unmarked) [Compound H10] are at most 76.5% and at least 66.7%.
The corresponding values for `CO[C@H]1CCO[C@H](C(=O)N[C@H](C#N)Cc2ccc(-c3ccc4cnn(C5CCN(C)CC5)c4c3)cc2F)CNC1` [Compound H16] are at most 76.5% and at least 66.7%.
In turn, `CO[C@H]1CCO[C@H](C(=O)N[C@H](C#N)Cc2ccc(-c3ccc4nnn(C)c4c3)cc2)CNC1` [Compound H18] registered an inhibition at 0.005 µM against DPP1 in HL-60 cells of at most 76.5%. At human DPP1 enzyme, this compound had an inhibition at 0.01 µM of at most 40%.
For `Cc1cn2cc(-c3ccc(C[C@@H](C#N)NC(=O)[C@@H]4CN[C@@H](C)[C@@H](O)CO4)cc3)cc2c(C)n1` [Compound A104] the same measures were at most 76.5% and at most 40%.
For `C[C@@H]1NC[C@@H](C(=O)N[C@H](C#N)Cc2ccc(-c3ccc4cnn(C5CCN(C)CC5)c4c3)cc2)OC[C@H]1O` [Compound H21] the same measures were at most 76.5% and at least 66.7%.
For `C[C@@H]1NC[C@@H](C(=O)N[C@H](C#N)Cc2ccc(-c3ccc4c(n3)CCCN4)cc2F)OC[C@@H]1O` [Compound A107] the same measures were at most 76.5% and at most 40%.
For `CN1CCC2(C1)OC(=O)c1ccc(-c3ccc(C[C@@H](C#N)NC(=O)[C@@H]4CNCCCCO4)cc3)cc12` (some centres unmarked) [Compound 38], the inhibition at 0.005 µM against DPP1 in HL-60 cells is at most 76.5%. This compound registered an inhibition at 0.01 µM on human DPP1 enzyme of at most 40%.
Compound `CO[C@@H]1CCNC[C@@H](C(=O)N[C@H](C#N)Cc2ccc(-c3ccc(CN4CCN(C)CC4)cc3)cc2F)OC1` [Compound F15] displayed an inhibition at 0.005 µM at DPP1 in HL-60 cells of at most 76.5%. Moreover, the inhibition at 0.01 µM on human DPP1 enzyme is at least 66.7%.
The corresponding values for `CN1CCCC2(C1)C(=O)N(C)c1ccc(-c3ccc(C[C@@H](C#N)NC(=O)[C@@H]4CNCCCCO4)cc3)cc12` (some centres unmarked) [Compound 36] are at most 76.5% and at most 40%.
For `Cn1nnc2ccc(-c3ccc(C[C@@H](C#N)NC(=O)[C@@H]4CNCCCCO4)c(F)c3)cc21` [Compound H38], at DPP1 in HL-60 cells, the inhibition at 0.005 µM was at most 76.5%. Moreover, at human DPP1 enzyme, the inhibition at 0.01 µM is at most 40%.
The corresponding values for `CO[C@H]1CCO[C@H](C(=O)N[C@H](C#N)Cc2cc3c(cc2F)-c2ccc(C#N)cc2CO3)CNC1` [Compound B24] are at most 76.5% and 40 to 66.7%.
The corresponding values for `CN1CCCC2(C1)C(=O)N(C)c1ccc(-c3ccc(C[C@@H](C#N)NC(=O)[C@@H]4CNCCCO4)c(F)c3)cc12` (some centres unmarked) [Compound 48] are at most 76.5% and 40 to 66.7%.
The corresponding values for `Cc1ncc(C)n2cc(-c3ccc(C[C@@H](C#N)NC(=O)[C@@H]4CNCCCO4)cc3)cc12` [Compound A140] are 76.5 to 93.9% and at most 40%.
As to `CO[C@H]1CCO[C@H](C(=O)N[C@H](C#N)Cc2ccc(-c3ccc4c(c3)C3(CCCN(C)C3)C(=O)N4C)cc2F)CNC1` (some centres unmarked) [Compound F25], the inhibition at 0.005 µM against DPP1 in HL-60 cells is at most 76.5%. Further, at human DPP1 enzyme, the inhibition at 0.01 µM is at least 66.7%.
The corresponding values for `CO[C@H]1CCO[C@H](C(=O)N[C@H](C#N)Cc2ccc(-c3ccc(S(=O)(=O)N4CCC4)cc3)cc2)CNC1` [Compound F29] are at most 76.5% and at most 40%.
`CO[C@@H]1CCNC[C@@H](C(=O)NC(C#N)Cc2cc3c(cc2F)-c2cc4c(cc2CO3)oc(=O)n4C)OC1` (some centres unmarked) [Compound C11] displayed an inhibition at 0.005 µM against DPP1 in HL-60 cells of 76.5 to 93.9%. The inhibition at 0.01 µM on human DPP1 enzyme is at least 66.7%.
For `COC1CNC[C@@H](C(=O)N[C@H](C#N)Cc2ccc(-c3cnc4c(n3)CCCC4)cc2)OC1` (some centres unmarked) [Compound A90] the same measures were at most 76.5% and at least 66.7%.
In turn, `CO[C@H]1CCO[C@H](C(=O)N[C@H](C#N)Cc2ccc(-c3ccc4c(c3)C3(CN(C)C3)OC4=O)cc2)CNC1` [Compound F20] displayed an inhibition at 0.005 µM at DPP1 in HL-60 cells of at most 76.5%. Besides, on human DPP1 enzyme, the inhibition at 0.01 µM was 40 to 66.7%.
As for `CO[C@@H]1CCNC[C@@H](C(=O)N[C@H](C#N)Cc2ccc(-c3ccc4c(c3)C3(CC4)CCN(C)CC3)cc2F)OC1` [Compound F11], the inhibition at 0.005 µM against DPP1 in HL-60 cells is at most 76.5%. Besides, on human DPP1 enzyme, the inhibition at 0.01 µM is at least 66.7%.
In the case of `CO[C@@H]1CCNC[C@@H](C(=O)N[C@H](C#N)Cc2ccc(-c3ccc4c(c3)C3(CCCN(C)C3)C(=O)N4C)cc2)OC1` (some centres unmarked) [Compound F7], on DPP1 in HL-60 cells, the inhibition at 0.005 µM was at most 76.5%. The same compound came in with an inhibition at 0.01 µM on human DPP1 enzyme of at least 66.7%.

What is called inhibition is the percentage by which the read-out fell short of the control. A low value points to a weak effect.
